Reference: ChEMBL document CHEMBL3046345, “Synthesis of novel pyrazole and pyrimidine derivatives bearing sulfonamide moiety as antitumor and radiosensitizing agents” (Med Chem Res, 2012)

Columns and labels:
HepG2 [1] = assay: Potentiation of gamma-irradiation-induced cytotoxicity against Homo sapiens (human) HepG2 cells at 40 uM relative to control; format: functional
HepG2 [2] = assay: Potentiation of gamma-irradiation-induced cytotoxicity against Homo sapiens (human) HepG2 cells at 12.5 uM relative to control; format: functional
HepG2 [3] = assay: Potentiation of gamma-irradiation-induced cytotoxicity against Homo sapiens (human) HepG2 cells at 5 uM relative to control; format: functional
HepG2 [4] = assay: Cytotoxicity against Homo sapiens (human) HepG2 cells at 25 uM relative to control; format: functional
HepG2 [5] = assay: Anticancer activity against Homo sapiens (human) HepG2 cells after 48 hr by SRB assay; format: functional, cell-based; details: HepG2, 48 h
HepG2 [6] = assay: Potentiation of gamma-irradiation-induced cytotoxicity against Homo sapiens (human) HepG2 cells at 25 uM relative to control; format: functional
HepG2 [7] = assay: Cytotoxicity against Homo sapiens (human) HepG2 cells at 40 uM relative to control; format: functional
HepG2 [8] = assay: Cytotoxicity against Homo sapiens (human) HepG2 cells at 5 uM relative to control; format: functional
HepG2 [9] = assay: Cytotoxicity against Homo sapiens (human) HepG2 cells at 12.5 uM relative to control; format: functional
MCF7 = assay: Anticancer activity against Homo sapiens (human) MCF7 cells after 48 hr by SRB assay; format: functional, cell-based; details: MCF7, 48 h

Compound | Activity (HepG2 [1]) [%] | Activity (HepG2 [2]) [%] | Activity (HepG2 [3]) [%] | Activity (HepG2 [4]) [%] | IC50 (HepG2 [5]) [µM] | Activity (HepG2 [6]) [%] | Activity (HepG2 [7]) [%] | Activity (HepG2 [8]) [%] | Activity (HepG2 [9]) [%] | IC50 (MCF7) [µM]
N=C1NN=C(N)/C1=C\Nc1ccc(S(=O)(=O)Nc2cnc3ccccc3n2)cc1 | 88.2 | 67 | 53.6 | 73.2 | 3.22 | 80.6 | 85.8 | 18.15 | 55.27 | 7.78
Cc1cc(C)nc(NS(=O)(=O)c2ccc(-n3cc(C#N)c(=O)n(-c4ccccc4)c3=S)cc2)n1 | 87.3 | 70.8 | 47.2 | 62.2 | 3.49 | 77.5 | 79.6 | 19.98 | 49.12 | 5.63
NC1=NN(c2ccccc2)C(=O)/C1=C/Nc1ccc(S(=O)(=O)Nc2cnc3ccccc3n2)cc1 | 88.5 | 77.8 | 57.1 | 76.15 | 3.21 | 93.5 | 79.39 | 40.36 | 65.3 | 6.71
Cc1cc(C)nc(NS(=O)(=O)c2ccc(N/C=C3/C(=N)N(c4ccccc4)N=C3N)cc2)n1 | 88.4 | 86 | 75.69 | 74.3 | 3.76 | 92.9 | 80.7 | 47.94 | 64.14 | 6.98
NC1=NN(c2ccccc2)C(=O)/C1=C/Nc1ccc(S(=O)(=O)Nc2ccccn2)cc1 | 91.8 | 80.8 | 62.1 | 66.9 | 3.49 | 76.7 | 80.2 | 39.49 | 57.82 | 5.1
